Activity calls are given as the source filed them. No rule for the calls is given here.
System: CCRIS mutagenicity, Ames/micronucleus/aberration tests
Test: CCRIS mutagenicity studies
[1] = Test System: AMES SALMONELLA TYPHIMURIUM, Strain/Indicator: TA98, Metabolic Activation: NONE, Method: PREINCUBATION
[2] = Test System: AMES SALMONELLA TYPHIMURIUM, Strain/Indicator: TA100, Metabolic Activation: NONE, Method: PREINCUBATION
[3] = Test System: AMES SALMONELLA TYPHIMURIUM, Strain/Indicator: TA1535, Metabolic Activation: NONE, Method: PREINCUBATION

CC(C)C1=CC2=CC[C@@H]3[C@](C)(CCC[C@@]3(C)C(=O)O)[C@H]2CC1
mutagenic call (Test System: AMES SALMONELLA TYPHIMURIUM, Strain/Indicator: TA98, Metabolic Activation: HAMSTER, LIVER, S-9, AROCLOR 1254, Method: STANDARD PLATE): inactive; negative | mutagenic call (Test System: AMES SALMONELLA TYPHIMURIUM, Strain/Indicator: TA98, Metabolic Activation: NONE, Method: STANDARD PLATE): inactive; negative | mutagenic call (Test System: AMES SALMONELLA TYPHIMURIUM, Strain/Indicator: TA98, Metabolic Activation: RAT, LIVER, S-9, AROCLOR 1254, Method: STANDARD PLATE): inactive; negative | mutagenic call (Test System: AMES SALMONELLA TYPHIMURIUM, Strain/Indicator: TA100, Metabolic Activation: HAMSTER, LIVER, S-9, AROCLOR 1254, Method: STANDARD PLATE): inactive; negative | mutagenic call (Test System: AMES SALMONELLA TYPHIMURIUM, Strain/Indicator: TA100, Metabolic Activation: NONE, Method: STANDARD PLATE): inactive; negative | mutagenic call (Test System: AMES SALMONELLA TYPHIMURIUM, Strain/Indicator: TA100, Metabolic Activation: RAT, LIVER, S-9, AROCLOR 1254, Method: STANDARD PLATE): inactive; negative | mutagenic call (Test System: AMES SALMONELLA TYPHIMURIUM, Strain/Indicator: TA1535, Metabolic Activation: HAMSTER, LIVER, S-9, AROCLOR 1254, Method: STANDARD PLATE): inactive; negative | mutagenic call (Test System: AMES SALMONELLA TYPHIMURIUM, Strain/Indicator: TA1535, Metabolic Activation: NONE, Method: STANDARD PLATE): inactive; negative | mutagenic call (Test System: AMES SALMONELLA TYPHIMURIUM, Strain/Indicator: TA1535, Metabolic Activation: RAT, LIVER, S-9, AROCLOR 1254, Method: STANDARD PLATE): inactive; negative | mutagenic call (Test System: AMES SALMONELLA TYPHIMURIUM, Strain/Indicator: TA1537, Metabolic Activation: HAMSTER, LIVER, S-9, AROCLOR 1254, Method: STANDARD PLATE): inactive; negative | mutagenic call (Test System: AMES SALMONELLA TYPHIMURIUM, Strain/Indicator: TA1537, Metabolic Activation: NONE, Method: STANDARD PLATE): inactive; negative | mutagenic call (Test System: AMES SALMONELLA TYPHIMURIUM, Strain/Indicator: TA1537, Metabolic Activation: RAT, LIVER, S-9, AROCLOR 1254, Method: STANDARD PLATE): inactive; negative | mutagenic call (Test System: AMES SALMONELLA TYPHIMURIUM, Strain/Indicator: TA1538, Metabolic Activation: HAMSTER, LIVER, S-9, AROCLOR 1254, Method: STANDARD PLATE): inactive; negative | mutagenic call (Test System: AMES SALMONELLA TYPHIMURIUM, Strain/Indicator: TA1538, Metabolic Activation: NONE, Method: STANDARD PLATE): inactive; negative | mutagenic call (Test System: AMES SALMONELLA TYPHIMURIUM, Strain/Indicator: TA1538, Metabolic Activation: RAT, LIVER, S-9, AROCLOR 1254, Method: STANDARD PLATE): inactive; negative | mutagenic call (Test System: MOUSE LYMPHOMA, Strain/Indicator: L5178Y (TK+/TK-), Metabolic Activation: NONE, Method: SUSPENSION/PLATE): active; positive. reevaluation of results: positive | mutagenic call (Test System: MOUSE LYMPHOMA, Strain/Indicator: L5178Y (TK+/TK-), Metabolic Activation: RAT, LIVER, S-9, AROCLOR 1254, Method: SUSPENSION/PLATE): inactive; negative. reevaluation of results: negative

C=C(C)CN(CC)c1c([N+](=O)[O-])cc(C(F)(F)F)cc1[N+](=O)[O-]
mutagenic call (End Point: In vitro chromasomal aberrations, Test System: Chinese hamster ovary (CHO) cells, Metabolic Activation: None): inactive; negative | mutagenic call (Test System: Ames Salmonella typhimurium, Strain/Indicator: TA98, Metabolic Activation: None, Method: Plate incorporation): inactive; negative | mutagenic call (Test System: Ames Salmonella typhimurium, Strain/Indicator: TA98, Metabolic Activation: Rat, Liver, S-9, Aroclor, Method: Plate incorporation): inactive; negative | mutagenic call (Test System: Ames Salmonella typhimurium, Strain/Indicator: TA100, Metabolic Activation: None, Method: Plate incorporation): inactive; negative | mutagenic call (Test System: Ames Salmonella typhimurium, Strain/Indicator: TA100, Metabolic Activation: Rat, Liver, S-9, Aroclor, Method: Plate incorporation): active; positive (weak response) | mutagenic call (Test System: Ames Salmonella typhimurium, Strain/Indicator: TA1535, Metabolic Activation: None, Method: Plate incorporation): inactive; negative | mutagenic call (Test System: Ames Salmonella typhimurium, Strain/Indicator: TA1535, Metabolic Activation: Rat, Liver, S-9, Aroclor, Method: Plate incorporation): active; positive (weak response) | mutagenic call (Test System: Ames Salmonella typhimurium, Strain/Indicator: TA1537, Metabolic Activation: None, Method: Plate incorporation): inactive; negative | mutagenic call (Test System: Ames Salmonella typhimurium, Strain/Indicator: TA1537, Metabolic Activation: Rat, Liver, S-9, Aroclor, Method: Plate incorporation): inactive; negative | mutagenic call (Test System: Ames Salmonella typhimurium, Strain/Indicator: TA1538, Metabolic Activation: None, Method: Plate incorporation): inactive; negative | mutagenic call (Test System: Ames Salmonella typhimurium, Strain/Indicator: TA1538, Metabolic Activation: Rat, Liver, S-9, Aroclor, Method: Plate incorporation): inactive; negative

Cc1cc(C)cc(N)c1
mutagenic call (Test System: AMES SALMONELLA TYPHIMURIUM, Strain/Indicator: TA97, Metabolic Activation: HAMSTER, LIVER, S-9, AROCLOR 1254 (10%), Method: PREINCUBATION): inactive; negative | mutagenic call (Test System: AMES SALMONELLA TYPHIMURIUM, Strain/Indicator: TA97, Metabolic Activation: NONE, Method: PREINCUBATION): inactive; negative | mutagenic call (Test System: AMES SALMONELLA TYPHIMURIUM, Strain/Indicator: TA97, Metabolic Activation: RAT, LIVER, S-9, AROCLOR 1254 (10%), Method: PREINCUBATION): inactive; negative | mutagenic call (Test System: AMES SALMONELLA TYPHIMURIUM, Strain/Indicator: TA98, Metabolic Activation: HAMSTER, LIVER, S-9, AROCLOR 1254 (10%), Method: PREINCUBATION): inactive; negative | mutagenic call [1]: inactive; negative | mutagenic call (Test System: AMES SALMONELLA TYPHIMURIUM, Strain/Indicator: TA98, Metabolic Activation: RAT, LIVER, S-9, AROCLOR 1254 (10%), Method: PREINCUBATION): inactive; negative | mutagenic call [2]: inactive; negative | mutagenic call (Test System: AMES SALMONELLA TYPHIMURIUM, Strain/Indicator: TA100, Metabolic Activation: RAT, LIVER, S-9, AROCLOR 1254 (10%), Method: PREINCUBATION): inactive; negative | mutagenic call (Test System: AMES SALMONELLA TYPHIMURIUM, Strain/Indicator: TA1535, Metabolic Activation: HAMSTER, LIVER, S-9, AROCLOR 1254 (10%), Method: PREINCUBATION): inactive; negative | mutagenic call [3]: inactive; negative | mutagenic call (Test System: AMES SALMONELLA TYPHIMURIUM, Strain/Indicator: TA1535, Metabolic Activation: RAT, LIVER, S-9, AROCLOR 1254 (10%), Method: PREINCUBATION): inactive; negative | mutagenic call (Test System: AMES SALMONELLA TYPHIMURIUM, Strain/Indicator: TA1537, Metabolic Activation: HAMSTER, LIVER, S-9, AROCLOR 1254 (10%), Method: PREINCUBATION): inactive; negative

CC(=O)Nc1ccc(S(=O)(=O)Cl)cc1
mutagenic call [1]: inactive; negative | mutagenic call (Test System: AMES SALMONELLA TYPHIMURIUM, Strain/Indicator: TA98, Metabolic Activation: RAT LIVER S-9, PHENOBARBITAL AND BETA-NAPHTHOFLAVONE, Method: PREINCUBATION): inactive; negative | mutagenic call [2]: inactive; negative | mutagenic call (Test System: AMES SALMONELLA TYPHIMURIUM, Strain/Indicator: TA100, Metabolic Activation: RAT LIVER S-9, PHENOBARBITAL AND BETA-NAPHTHOFLAVONE, Method: PREINCUBATION): inactive; negative | mutagenic call (Test System: AMES SALMONELLA TYPHIMURIUM, Strain/Indicator: TA102, Metabolic Activation: NONE, Method: PREINCUBATION): inactive; negative | mutagenic call (Test System: AMES SALMONELLA TYPHIMURIUM, Strain/Indicator: TA102, Metabolic Activation: RAT LIVER S-9, PHENOBARBITAL AND BETA-NAPHTHOFLAVONE, Method: PREINCUBATION): inactive; negative | mutagenic call (Test System: AMES SALMONELLA TYPHIMURIUM, Strain/Indicator: TA104, Metabolic Activation: NONE, Method: PREINCUBATION): inactive; negative | mutagenic call (Test System: AMES SALMONELLA TYPHIMURIUM, Strain/Indicator: TA104, Metabolic Activation: RAT LIVER S-9, PHENOBARBITAL AND BETA-NAPHTHOFLAVONE, Method: PREINCUBATION): inactive; negative | mutagenic call [3]: inactive; negative | mutagenic call (Test System: AMES SALMONELLA TYPHIMURIUM, Strain/Indicator: TA1535, Metabolic Activation: RAT LIVER S-9, PHENOBARBITAL AND BETA-NAPHTHOFLAVONE, Method: PREINCUBATION): inactive; negative | mutagenic call (Test System: AMES SALMONELLA TYPHIMURIUM, Strain/Indicator: TA1537, Metabolic Activation: NONE, Method: PREINCUBATION): inactive; negative | mutagenic call (Test System: AMES SALMONELLA TYPHIMURIUM, Strain/Indicator: TA1537, Metabolic Activation: RAT LIVER S-9, PHENOBARBITAL AND BETA-NAPHTHOFLAVONE, Method: PREINCUBATION): inactive; negative | mutagenic call (Test System: E.COLI, Strain/Indicator: WP2UVRA/PKM101, Metabolic Activation: NONE, Method: PREINCUBATION): inactive; negative | mutagenic call (Test System: E.COLI, Strain/Indicator: WP2UVRA/PKM101, Metabolic Activation: RAT LIVER S-9, PHENOBARBITAL AND BETA-NAPHTHOFLAVONE, Method: PREINCUBATION): inactive; negative | mutagenic call (Test System: E.COLI, Strain/Indicator: WP2UVRA, Metabolic Activation: NONE, Method: PREINCUBATION): inactive; negative | mutagenic call (Test System: E.COLI, Strain/Indicator: WP2UVRA, Metabolic Activation: RAT LIVER S-9, PHENOBARBITAL AND BETA-NAPHTHOFLAVONE, Method: PREINCUBATION): inactive; negative
